Results taken from patent US20180298024A1, “CORTISTATIN ANALOGS AND USES THEREOF” (President and Fellows of Harvard College, priority 2015, published 2018).
“And” between values parts separate entries of the source, which are not always exact repeats. Equal values may be shown once. Read-outs that look alike come from different tables or passages of the source.

Key:
[1] = test system: sodium channel; experiment: Panlab sodium channel assay; format: binding; conditions: 10 μM
Experimental: (§1) Compounds A, B, C, and D were tested in Panlab assays to evaluate potential off-target activity using standard assay kits. Methods employed in these studies have been adapted from the scientific literature to maximize reliability and reproducibility. Reference standards were run as an integral part of each assay to ensure the validity of the results obtained.
Compound B was tested in a subset of 30 Panlab assays that included the hits from screening Compound F in addition to the Panlab hERG and sodium channel assay. This allows direct comparison of Compound B to Compound F in terms of off-target profile.

[2] = test system: off-targets (Panlabs); experiment: Panlab off-target assay panel; format: binding; conditions: 10 μM; for number of targets with ≥75% inhibition: Safety Panel = 28 binding assays (Eurofins Panlabs)
Experimental: as §1
IC50 values were determined by a non-linear, least squares regression analysis using MathIQ™ (ID Business Solutions Ltd., UK). Where inhibition constants (Ki) are presented, the Ki values were calculated using the equation of Cheng and Prusoff (Cheng, Y., Prusoff, W. H., Biochem. Pharmacol. 22:3099-3108, 1973) using the observed IC50 of the tested compound, the concentration of radioligand employed in the assay, and the historical values for the KD of the ligand (obtained experimentally at Eurofins Panlabs, Inc.). Where presented, the Hill coefficient (nH), defining the slope of the competitive binding curve, was calculated using MathIQ™.

[3] = molecular target: T1, CDK8/Cyclin C (Homo sapiens, UniProt P49336); experiment: 33PanQinase radiometric kinase assay, CDK8/Cyclin C; format: biochemical; conditions: read-out: percent inhibition of CDK8/Cyclin C
T1 construct: purchased ProQinase; host or cells: Sf9 insect cells or E. coli
T1 sequence (P49336 whole entry): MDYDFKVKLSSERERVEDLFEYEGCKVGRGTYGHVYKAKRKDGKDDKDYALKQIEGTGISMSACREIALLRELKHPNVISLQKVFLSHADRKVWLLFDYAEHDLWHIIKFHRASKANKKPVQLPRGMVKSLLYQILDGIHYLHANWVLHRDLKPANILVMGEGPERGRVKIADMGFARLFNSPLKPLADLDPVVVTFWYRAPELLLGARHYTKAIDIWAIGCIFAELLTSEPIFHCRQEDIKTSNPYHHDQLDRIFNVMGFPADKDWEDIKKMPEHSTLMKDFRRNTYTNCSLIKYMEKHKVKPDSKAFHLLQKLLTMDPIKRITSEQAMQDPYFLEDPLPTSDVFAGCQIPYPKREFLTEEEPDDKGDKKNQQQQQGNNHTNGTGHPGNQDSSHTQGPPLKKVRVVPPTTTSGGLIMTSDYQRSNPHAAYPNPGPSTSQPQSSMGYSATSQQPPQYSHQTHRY
T1 sequence (P24863 whole entry partner): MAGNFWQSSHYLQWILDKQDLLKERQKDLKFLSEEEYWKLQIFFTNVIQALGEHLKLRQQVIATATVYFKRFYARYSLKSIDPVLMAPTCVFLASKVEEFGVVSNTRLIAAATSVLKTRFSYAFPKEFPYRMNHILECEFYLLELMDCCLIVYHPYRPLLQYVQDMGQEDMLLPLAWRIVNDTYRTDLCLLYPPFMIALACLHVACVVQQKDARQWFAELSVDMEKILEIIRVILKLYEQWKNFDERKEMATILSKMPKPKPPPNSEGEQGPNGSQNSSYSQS
Experimental: A radiometric protein kinase assay (33PanQinase Activity Assay) was used for measuring the kinase activity of the 320 protein kinases. All kinase assays were performed in 96-well FlashPlates™ from Perkin Elmer (Boston, Mass., USA) in a 50 μl reaction volume. The reaction cocktail was pipetted in 4 steps in the following order: • 1. 10 μl of non-radioactive ATP solution (in H2O) • 2. 25 μl of assay buffer/[γ-33P]-ATP mixture • 3. 5 μl of test sample in 10% DMSO • 4. 10 μl of enzyme/substrate mixture
All PKC assays (except the PKC-mu and the PKC-nu assay) additionally contained 1 mM CaCl2, 4 mM EDTA, 5 μg/ml phosphatidylserine and 1 μg/ml 1,2-dioleyl-glycerol.
The CAMKID, CAMK2A, CAMK2B, CAMK2D, CAMK4, CAMKK1, CAMKK2, DAPK2, EEF2K, MYLK, MYLK2 and MYLK3 assays additionally contained 1 μg/ml Calmodulin and 0.5 mM CaCl2). The PRKG1 and PRKG2 assays additionally contained 1 μM cGMP. The DNA-PK assay additionally contained 2.5 μg/ml DNA. The protein kinase reaction cocktails were incubated at 30° C. for 60 minutes. The reaction was stopped with 50 μl of 2% (v/v) H3PO4, plates were aspirated and washed two times with 200 μl 0.9% (w/v) NaCl. Incorporation of 33Pi (counting of “cpm”) was determined with a microplate scintillation counter (Microbeta, Wallac). All protein kinase assays were performed with a BeckmanCoulter Biomek 2000/SL robotic system.
All protein kinases provided by ProQinase were expressed in Sf9 insect cells or in E. coli as recombinant GST-fusion proteins or His-tagged proteins, either as full-length or enzymatically active fragments. All kinases were produced from human cDNAs and purified by either GSHaffinity chromatography or immobilized metal. Affinity tags were removed from a number of kinases during purification. The purity of the protein kinases was examined by SDSPAGE/Coomassie staining, the identity was checked by mass spectroscopy.
For each kinase, the median value of the cpm of three wells was defined as “low control” (n=3). This value reflects unspecific binding of radioactivity to the plate in the absence of a protein kinase but in the presence of the substrate. Additionally, for each kinase the median value of the cpm of three other wells was taken as the “high control”, i.e. full activity in the absence of any inhibitor (n=3). The difference between high and low control of each enzyme was taken as 100% activity. As part of the data evaluation the low control of each kinase was subtracted from the high control value as well as from their corresponding “compounds values”. The residual activity (in %) for each compounds well was calculated by using the following formula:
Res. Activity (%)=100×[(signal of compounds−low control)/(high control−low control)]

[4] = molecular target: T2, CDK8 (Homo sapiens, UniProt P49336); experiment: CDK8 IC50 determination (Example 9); format: biochemical
T2 sequence (P49336 whole entry): as the sequence (P49336 whole entry) above
T2 sequence (P24863 whole entry partner): as the sequence (P24863 whole entry partner) above

[5] = molecular target: T2, CDK8; experiment: CDK8 Kd and residence time; format: binding
[6] = molecular target: T2, CDK8; experiment: Western blot study of CDK8 inhibition; format: cell-based; conditions: decreased staining results from inhibition of the target
Experimental: CDK8 inhibition in cells as measured by inhibition of Interferon-gamma (IFNγ)-stimulated STAT1-S727 phosphorylation. The compounds were provided as 200 μl of 1×10^−03 M/100% stock solutions in vials. The vials arrived in good condition and 2×100 μl each of the stock solutions were transferred into wells A2 to H2 of a 96 well “master plate” (barcoded “11273-UNH-01”), according to Table 12.
The dose response curves presented above were corroborated with western blot studies.

[7] = test system: SKNO-1; experiment: Half-maximal growth inhibition (GI50), SKNO-1; format: cell-based; conditions: Homo sapiens, 240 h, AML, M2, RUNX1-RUNX1T1, read-out: GI50 (nM), day 10
Experimental: Compounds A, B, C, D, and F were tested against various cell lines to probe their broad utility against cancer. Cortistatin A (CA) was also tested against the cell lines in a head to head fashion.

[8] = test system: Human AML cell line MV4;11; experiment: MV4;11 disseminated leukemia model (bioluminescence); format: in vivo, NSG mice; conditions: for Fold increase in leukemia burden 15 days after 1st dose / in vivo anti-leukemic efficacy (bioluminescence, words): NSG mice; for in vivo anti-leukemic efficacy (bioluminescence, words): compounds dosed at their highest tolerable dose; for Efficacy Rank Day 15: each compound at its own dose/schedule, data from 3 separate studies
Experimental: The in vivo anti-leukemic activity of Compounds A, B, C, D, and F was tested at the indicated doses and treatment schedules. The doses were chosen based on the compounds tolerability profile (i.e. CA was dosed at 0.16 mg/kg because higher doses caused weight loss or other tolerability issues outlined in Example 6). Human AML cell line MV4;11 expressing mCherry and luciferase were injected into NSG mice. Upon measurement of leukemia cell engraftment, treatment was initiated. Body weight and bioluminescence were measured. It has previously been shown (Shair, Nature 2015) that bioluminescence corresponds to leukemia burden. […] Moreover there was no appreciable advantage between IV or PO dosing observed.

[9] = read-out: IC50 (nM) against CDK8, average
[10] = tested in duplicate, read-out: IC50 against CDK8, single determinations

| SMILES | % inhibition, Panlab sodium channel assay [1] | number of targets with ≥75% inhibition [2] | number of targets with greater than 75% inhibition ([2]; subset of 30 Panlab assays) | inhibition at 1 µM [3] | IC50 [4, 9] | IC50 [4, 10] | Kd [5] | inhibition of CDK8 in Western blot [6] | GI50 [7] | Fold increase in leukemia burden 15 days after 1st dose ([8]; 5 mpk PO 7on/4off/4on) | in vivo anti-leukemic efficacy (bioluminescence, words) [8] | Efficacy Rank Day 15 [8] | Fold increase in leukemia burden 15 days after 1st dose ([8]; 3 mpk IV 7on/2off/4on then IP 2on) | number of targets with greater than 50% inhibition ([2]; subset of 30 Panlab assays) | Fold increase in leukemia burden 15 days after 1st dose ([8]; 10 mpk PO 7 on/2off/6on) | number of targets with greater than 50% inhibition ([2]; over 100 Panlab assays) | residence time [5] | Fold increase in leukemia burden 15 days after 1st dose ([8]; 20 mpk PO Q5Dx2) |
| --- | --- | --- | --- | --- | --- | --- | --- | --- | --- | --- | --- | --- | --- | --- | --- | --- | --- | --- |
| C[C@]12CC=C3C=C4CC[C@@H](N5CC(N)C5)C[C@]45CC[C@]3(O5)[C@@H]1CC[C@@H]2c1ccc2ccncc2c1 [Compound C] | 66% | 4 | 4 | > 50% | 9.5 nM | 8.9 nM and 10.2 nM | 0.22 ± 0.03 nM | dose dependent response | 3 nM | 2.2 fold | superior in vivo efficacy as compared to Compound F | 2 |  |  |  |  |  |  |
| C[C@]12CC=C3C=C4CC[C@@H](N5C[C@H](O)[C@@H](O)C5)C[C@]45CC[C@]3(O5)[C@@H]1CC[C@@H]2c1ccc2ccncc2c1 [Compound D] | 65% | 3 | 3 | > 50% | 6.4 nM | 6.4 nM and 6.5 nM | 0.2 ± 0.02 nM | dose dependent response | < 1 nM |  | superior in vivo efficacy as compared to Compound F | 1 | 1.1 fold |  |  |  |  |  |
| C[C@]12CC=C3C=C4CC[C@@H](N5CC[C@@H](N)C5)C[C@]45CC[C@]3(O5)[C@@H]1CC[C@@H]2c1ccc2ccncc2c1 [Compound B] | 65% | 8 |  | > 50% | 9.1 nM | 5.5 nM and 12.7 nM | 0.19 ± 0.05 nM | dose dependent response | 3 nM |  | superior in vivo efficacy as compared to Compound F | 3 |  | 8 | 5.2 fold |  |  |  |
| C[C@]12CC=C3C=C4CC[C@@H](O)C[C@]45CC[C@]3(O5)[C@@H]1CC[C@@H]2c1ccc2ccncc2c1 [Compound A, (3S,3aR,9R,10aR,12aS,12bR)-3-(isoquinolin-7-yl)-3a-methyl-1,2,3,3a,4,7,8,9,10,11,12,12b-dodecahydro-10a,12a-epoxybenzo[4,5]cyclohepta[1,2-e]inden-9-ol] |  | 0 |  | > 50% | 9.9 nM | 10.6 nM and 9.3 nM | 0.23 ± 0.02 nM | dose dependent response | 2 nM |  | similarly efficacious to Compound F | 5 |  |  |  | 8 | 447 min | 10.4 fold |
